The target of assay [1] is T1, human recombinant kinase full-length wildtype AKT1 (Homo sapiens, UniProt P31749).
T1 construct: Purified human recombinant kinase full-length wildtype AKT1 was expressed in insect cells; made in house; host or cells: insect cells
As to the kind of experiment: AKT1 kinase assay (wildtype, TR-FRET, Lance). It is filed as biochemical. The conditions noted are these: 0.6 nM wildtype AKT1, 50 nM Ulight-CREBtide, either 50 μM ATP or 2 mM ATP (not specified which), 60 min at RT. The essentials:
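Insect-cell-expressed AKT1, activated in vitro by PDPK1, was used at 0.6 nM with 50 nM Ulight-CREBtide and 50 μM or 2 mM ATP in 50 mM HEPES pH 7.5, 1% DMSO, over a 10-point dose response.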
On the technique in general: TR-FRET usually uses a lanthanide donor and a delayed reading to cut background.

Assay [2] has as its target T2, human recombinant kinase full-length AKT1 E17K (Homo sapiens, UniProt P31749, E17K).
T2 construct: Purified human recombinant kinase full-length AKT1 E17K was expressed in insect cells; made in house; host or cells: insect cells
As to the kind of experiment: AKT1 E17K kinase assay (TR-FRET, Lance). It is filed as biochemical. The conditions noted are these: 0.6 nM AKT1 E17K, 50 nM Ulight-CREBtide, either 50 μM ATP or 2 mM ATP (not specified which), 60 min at RT. The essentials: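 Full-length human AKT1 E17K (insect cell-expressed, PDPK1-activated; 0.6 nM) with 50 nM ULight-CREBtide in HEPES pH 7.5 with MgCl2 and DTT. ATP at 50 μM or 2 mM, 1% DMSO, 10-point dose response, 60 min at RT.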

In general, IC50 refers to the concentration at which inhibition is half-maximal.

T1 sequence (P31749 whole entry): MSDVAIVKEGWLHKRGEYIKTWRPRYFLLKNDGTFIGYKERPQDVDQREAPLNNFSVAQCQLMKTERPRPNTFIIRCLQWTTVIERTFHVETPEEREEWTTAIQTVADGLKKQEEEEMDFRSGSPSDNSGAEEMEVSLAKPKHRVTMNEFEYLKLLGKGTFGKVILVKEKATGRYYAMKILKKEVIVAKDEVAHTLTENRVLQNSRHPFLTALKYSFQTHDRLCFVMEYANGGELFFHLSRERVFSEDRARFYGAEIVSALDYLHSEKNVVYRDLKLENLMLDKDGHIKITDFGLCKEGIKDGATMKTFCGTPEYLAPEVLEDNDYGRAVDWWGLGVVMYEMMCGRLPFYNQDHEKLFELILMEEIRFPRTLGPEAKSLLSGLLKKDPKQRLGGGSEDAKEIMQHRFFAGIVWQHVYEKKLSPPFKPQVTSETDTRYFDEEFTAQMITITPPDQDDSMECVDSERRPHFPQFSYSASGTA
T2 sequence (P31749 whole entry E17K): as the sequence (P31749 whole entry) above, with E17K counted along it

`Cc1cc(C(=O)Nc2ccc(-n3c(-c4cccnc4N)nc4ccc(-c5ccccc5)nc43)cn2)ccc1C(=O)O` [Compound 118, 4-((5-(2-(2-aminopyridin-3-yl)-5-phenyl-3H-imidazo[4,5-b]pyridin-3-yl)pyridin-2-yl)carbamoyl)-2-methylbenzoic acid]: the IC50 in assay [1] was less than 500 nM; in assay [2] it was less than 50 nM.
For `Nc1ncccc1-c1nc2ccc(-c3ccccc3)nc2n1-c1ccc(CNC(=O)c2cccc(CCC(=O)O)c2)cc1` [Compound 42, 3-(3-((4-(2-(2-aminopyridin-3-yl)-5-phenyl-3H-imidazo[4,5-b]pyridin-3-yl)benzyl)carbamoyl)phenyl) propanoic acid], in that order: less than 500 nM and 50 to 200 nM.
Regarding `Cc1nc(NC(=O)c2ccc(C(=O)O)cc2)ccc1-n1c(-c2cccnc2N)nc2ccc(-c3ccccc3)nc21` [Compound 153], the IC50 was less than 500 nM in assay [1] and less than 50 nM in assay [2].
For `Nc1ncccc1-c1nc2ccc(-c3ccccc3)nc2n1-c1ccc(C(=O)Nc2ccc(C(=O)O)cc2F)nc1` [Compound 179, 4-(5-(2-(2-aminopyridin-3-yl)-5-phenyl-3H-imidazo[4,5-b]pyridin-3-yl)picolinamido)-3-fluorobenzoic acid], in that order: less than 500 nM and 200 to 500 nM.
`NC(=O)Cc1cccc(C(=O)NCc2ccc(-n3c(-c4cccnc4N)nc4ccc(-c5ccccc5)nc43)cc2)c1` [Compound 43, 3-(2-amino-2-oxoethyl)-N-(4-(2-(2-aminopyridin-3-yl)-5-phenyl-3H-imidazo[4,5-b]pyridin-3-yl)benzyl)benzamide]: the half-maximal inhibitory concentration (IC50) in assay [1] is less than 500 nM; in assay [2] it was more than 500 nM.
Consider `COC(=O)Cc1cccc(C(=O)NCc2ccc(-n3c(-c4cccnc4N)nc4ccc(-c5ccccc5)nc43)cc2)c1F` [Compound 33, methyl 2-(3-((4-(2-(2-aminopyridin-3-yl)-5-phenyl-3H-imidazo[4,5-b]pyridin-3-yl)benzyl)carbamoyl)-2-fluorophenyl)acetate], for which the concentration for half-maximal inhibition (IC50) was less than 500 nM in assay [1] and more than 500 nM in assay [2].
On the same counts, the results for `CC(C)c1ccc2nc(-c3cccnc3N)n(-c3ccc(C4CN(Cc5ccc(C(=O)O)cc5)C4)cc3)c2n1` [Compound 173, 4-((3-(4-(2-(2-aminopyridin-3-yl)-5-isopropyl-3H-imidazo[4,5-b]pyridin-3-yl)phenyl)azetidin-1-yl)methyl)benzoic acid] are less than 500 nM and more than 500 nM.
For `Cc1nc(NC(=O)c2ccc(C(=O)O)c(F)c2)ccc1-n1c(-c2cccnc2N)nc2ccc(-c3ccccc3)nc21` [Compound 154], in that order: less than 500 nM and less than 50 nM.
For `Nc1ncccc1-c1nc2ccc(OC(F)(F)F)cc2n1-c1ccc(NC(=O)c2ccc(C(=O)O)cc2)nc1` [Compound 175, 4-((5-(2-(2-aminopyridin-3-yl)-6-(trifluoromethoxy)-1H-benzo[d]imidazol-1-yl)pyridin-2-yl)carbamoyl)benzoic acid], in that order: more than 500 nM and more than 500 nM.
For the molecule `Nc1ncccc1-c1nc2cc(-c3ccc(NC(=O)c4ccccc4)cc3)cnc2n1-c1ccc(CNC(=O)c2cccc(CC(=O)O)c2)cc1` [Compound 86, 2-(3-((4-(2-(2-aminopyridin-3-yl)-6-(4-benzamidophenyl)-3H-imidazo[4,5-b]pyridin-3-yl)benzyl)carbamoyl)phenyl) acetic acid], the half-inhibitory concentration (IC50) in assay [1] was less than 500 nM; in assay [2] it was less than 50 nM.
Turning to `Nc1ncccc1-c1nc2ccc(-c3ccccc3)nc2n1-c1ccc(C2CN(C(=O)c3cccc(C(=O)O)c3F)C2)cc1` [Compound 78, 3-(3-(4-(2-(2-aminopyridin-3-yl)-5-phenyl-3H-imidazo[4,5-b]pyridin-3-yl)phenyl)azetidine-1-carbonyl)-2-fluorobenzoic acid], the 50% inhibitory concentration (IC50) in assay [1] was less than 500 nM; in assay [2] it was 50 to 200 nM.

Values taken from patent US20260200919A1, “SUBSTITUTED AMINOPYRIDINE COMPOUNDS AND METHODS OF TREATING DISEASE USING SAME” (Atavistik Bio, Inc., priority 2023, published 2026).
